This is an account of results in patent US6620841B1, “Aromatic heterocycle compounds having HIV integrase inhibiting activities” (Shionogi & Co., Ltd., priority 1998, dated 2003).

The structures appear in SMILES notation. ≈ marks a conversion by molar mass, not a printed value. Read-outs that look alike come from different tables or passages of the source. Bounds are passed on as bounds.

One data set deals with SIVagm SA212. Nature of the data set: Anti-HIV/SIV activity in infected Molt-4 cells, virus amount by RT activity. Format: cell-based. Particulars: RT activity of supernatant at 5 days postinfection. How it is done:
(§1) (1) Molt-4 cells (2×10^6 cells) were infected with HIV-1 NL432 (4×10^6 cpm), HIV-2 Rod (8×10^6 cpm), SIVmac MA239 (8×10^6 cpm) and SIVagm SA212 (8×10^6 cpm), and incubated for 1 hr at room temperature.
(4) Preparation of SIVagm SA212: SW480 cells were cultured in DMEM medium supplemented with 10% fetal bovine serum using 25 cm^2 flask. SIVagm SA212 infectious molecular DNA (40 μg), pSA212, transfected to the cells by calcium phosphate coprecipitation methods, and the supernatant (2 ml) at 2-3 days post-transfection was infected to M8166 cells (1×10^6 cells). The cells were cultured in 10 ml RPMI medium supplemented with 10% fetal bovine serum in CO2 incubator at 37° C. Every 3 days, the cells were separated from the supernatant by centrifugation and continued culture with new medium. The each supernatant was filtrated by 0.45 μm filter, measured RT activity, and stored at −80° C. as SIVagm stock virus.
(§2) (2) The cells were washed twice to remove the viruses and suspended in 10 ml RPMI medium supplemented with 10% fetal bovine serum. The infected cells (100 μl) were plated in 96 well microtiter plates containing with the serial 5 fold dilution of compounds (100 μl) and cultured in CO2 incubator at 37° C.
(§3) (3) The supernatant at 5 days postinfection was harvested and measured the amount of the virus by RT activity.
(§4) Preparation of the solution for RT assay:
(§5) A reaction mixture (90 μl) were contained 50 mM Tris-HCl, pH 8.3, 150 mM KCl, 10 mM MgCl2, 0.1% Nonidet P-40, 10 mM DTT (dithiothreitol), 5 μg/ml poly(rA), 5 μg/ml (dT)12-18 and 1 μCi [^3H] dTTP at final concentration after mixture of a sample (10 μl).
(§6) The procedure of RT assay:
(§7) 1. 10 μl of sample was plated to 3 wells of 96 well microtiter plate (triplicate assay).
(§8) 2. Reaction mixture (90 μl) chilled at 4° C. was added to each well, mixed and then incubate at 37° C. for 3 hrs.
(§9) 3. After incubation, the plate was chilled on ice, and passed through a DEAE-Filtermat using cell harvester. The filter was washed with 4.5% Na2HPO4 (20 sec) and H2O (10 sec).
(§10) 4. The filter was dried at 95° C. for 15 min.
(§11) 5. 10 ml of scintilator was added and sealed.
(§12) 6. Radioactivity was measured by LKB Beta Plate scintillation spectroscopy.
(§13) 7. RT activity (cpm/ml) was calculated from average of three wells.

The next data set concerns HIV-2 Rod. Described as above. Format: cell-based. Particulars: RT activity of supernatant at 5 days postinfection. How it is done: as §1
(2) Preparation of […] Rod: HIV-2 Rod was infected to M8166 cells (1×10^6 cells). The cells were cultured in 10 ml RPMI medium supplemented with 10% fetal bovine serum in CO2 incubator at 37° C. After apparent giant cells were observed, the cells were removed by centrifugation and then the supernatant was filtrated by 0.45 μm filter, measured RT activity, and stored at −80° C. as HIV-2 stock virus.
as §2, §3, §4, §5, §6, §7, §8, §9, §10, §11, §12, §13

The next data set deals with HIV-1 NL432. The description is as above. Format: cell-based. As to conditions: RT activity of supernatant at 5 days postinfection. How it is done: as §1
(§14) (1) Preparation of HIV-1 NL432: SW480 cells were cultured in DMEM medium supplemented with 10% fetal bovine serum using 25 cm^2 flask. HIV-1 infectious molecular DNA (40 μg), pNL432, transfected to the cells by calcium phosphate coprecipitation method, and the supernatant (2 ml) at 2-3 days post-transfection was infected to M8166 cells (1×10^6 cells). The cells were cultured in 10 ml RPMI medium supplemented with 10% fetal bovine serum in CO2 incubator at 37° C. After apparent giant cells were observed, the cells were removed by centrifugation and then the supernatant was filtrated by 0.45 μm filter, measured RT activity, and stored at −80° C. as HIV-1 stock virus.
as §2, §3, §4, §5, §6, §7, §8, §9, §10, §11, §12, §13

The next data set relates to SIVmac MA239. The description is as above. Format: cell-based. Particulars: RT activity of supernatant at 5 days postinfection. How it is done: as §1
as §14, with “(3) Preparation” for “(1) Preparation”, “of SIVmac MA239:” for “of HIV-1 NL432:”, “flask. SIVmac MA239” for “flask. HIV-1”, “μg), pMA239,” for “μg), pNL432,”, “to CEMX174” for “to M8166”, “as SIVmac” for “as HIV-1”
as §2, §3, §4, §5, §6, §7, §8, §9, §10, §11, §12, §13

The subject of data set [1] is feline immunodeficiency virus (FIV TM-2 strain). Nature of the data set: Anti-FIV activity in MYA-1 feline T-cells, virus amount by RT activity. Format: cell-based. As to conditions: FIV TM-2 in MYA-1 cells, RT activity at 10 days postinfection. How it is done: (1) The serial 5 fold diluted samples were plated in 24 well microtiter plate. Feline T-cell lines (MYA-1 cells: 4×10^5 cells/well) and feline immunodeficiency virus (FIV TM-2 strain: 3000 cpm/well) were added to each well. The cells were cultured with 1.5 ml RPMI medium supplemented with 10% fetal bovine serum, 2 μg/ml polybrene, 100 unit/ml human recombinant IL-2 and 50 μM 2-mercaptoethanol in CO2 incubator at 37° C.
1. Preparation of FIV TM-2: FIV TM-2 was infected to MYA-1 cells (1×10^6 cells). The cells were cultured in 10 ml RPMI medium supplemented with 10% fetal bovine serum, 2 μg/ml polybrene, 100 unit/ml human recombinant IL-2 and 50 μM 2-mercaptoethanol in CO2 incubator at 37° C. Every 1-2 days, the cells were separated from the supernatant by centrifugation and continued culture with new medium. Each of the supernatant was filtrated by 0.45 μm filter, measured RT activity, and stored at as −80° C. as FIV stock virus.
(2) Every 1-2 days, the supernatants were measured the amount of the virus by RT activity (as same as experimental example 2).

In a further data set the target is HIV-1 integrase (Human immunodeficiency virus type 1 group M subtype B, UniProt P12497). In words: HIV-1 integrase inhibition assay (microtiter plate, substrate/target DNA, OD 405 nm).
Where [2] appears, read: Simian immunodeficiency virus, 120 h.

Description for HIV-1 integrase: (2) Calculations of the Percent Inhibitions (the IC50 Values of Test Compounds)
Streptavidin, obtained from Vector Laboratories, was dissolved in 0.1 M carbonate buffer (composition: 90 mM Na2CO3, 10 mM NaHCO3) at concentration of 40 μg/ml. After coating each well of microtiter plates (obtained from NUNC) with 50 μl of the above solution at 4° C. over night, each well was washed twice with PBS (composition: 13.7 mM NaCl, 0.27 mM KCl, 0.43 mM Na2HPO4, 0.14 mM KH2PO4) and blocked with 300 μl of 1% skim milk in PBS for 30 min. Additionally, each well was washed twice with PBS and added 50 μl of substrate DNA solution (2 pmol/μl). The microtiter plates were kept at room temperature for 30 min. Then, each well was washed twice with PBS and once with H2O.
Subsequently, in the each well prepared above were added 45 μl of the reaction buffer prepared from 12 μl of the buffer (composition: 150 mM MOPS (pH 7.2), 75 mM MnCl2, 50 mM 2-mercaptoethanol, 25% glycerol, 500 μg/ml bovine serum albumin-fraction V), 1 μl of target DNA (5 pmol/μl), and 32 μl of the distilled water. Additionally, 6 μl of either a test compound in DMSO or DMSO for positive control(PC) was mixed with the above reaction buffer, then 9 μl of an integrase solution (30 pmol) was added and mixed well. In the well of negative control (NC) was added 9 μl of the integrase dilution buffer (composition: 20 mM MOPS (pH7.2), 400 mM potassium glutamate, 1 mM EDTA, 0.1% NP-40, 20% glycerol, 1 mM DTT, 4M urea).
The microtiter plates were incubated at 30° C. for 1 hour. The reaction solution was removed and each well was washed twice with PBS. Subsequently, each well of the microtiter plates was filled with 100 μl of anti-digoxigenin antibody labeled with alkaline phosphatase (Sheep Fab fragment: obtained from Boehringer) and incubated at 30° C. for 1 hour. Then, each well was washed twice with 0.05% Tween20 in PBS and once with PBS. Next, 150 μl of the Alkaline phosphatase reaction buffer (composition: 10 mM p-Nitrophenylphosphate (obtained from Vector Laboratories), 5 mM MgCl2, 100 mM NaCl, 100 mM Tris-HCl (pH 9.5))was added in each well. […] The optical density (OD) at 405 nm of each well was measured and the percent inhibition was determined by the following expression.
The percent inhibition (%)=100[1-{(C abs.−NC abs.)/(PC abs.−NC abs.)}]
C abs.; the OD of the well of the compounds
NC abs.: the OD of the negative control (NC)
PC abs.: the OD of the positive control (PC)
IC50(μg/ml)=x−{(X−50)(x−y)/(X−Y)}

Regarding `Cc1cn([C@H]2C=C[C@@H](CO)O2)c(=O)[nH]c1=O` [d4T], the “Anti-HIV/SIV activity EC50, SIVagm” value with SIVagm SA212 amounted to 0.0045 mg/L. Also, the “Anti-HIV/SIV activity EC50, HIV-2 Rod” value with HIV-2 Rod stood at 0.0041 mg/L. Moreover, in the data set with HIV-1 NL432, the “Anti-HIV/SIV activity EC50, HIV-1 NL432” value turned out to be 0.0061 mg/L. The “Anti-HIV/SIV activity EC50, SIVmac” value in the data set on SIVmac MA239 is 0.0034 mg/L.
Broadly, the EC50 is the concentration that produces a half-maximal response. `O=C(/C=C(\O)c1nc[nH]n1)c1ccc(Cc2ccc(F)cc2)o1` [I-42, 1-[5-(4-fluorobenzyl)furan-2-yl]-3-hydroxy-3-(1H-1,2,4-triazol-3-yl)-propenone]: in data set [1] (Feline immunodeficiency virus, T-cell, 240 h, read-out: EC50), the EC50 was determined as 0.3 mg/L (≈ 0.958 µM).
As to `CC(C)c1nc(COC(N)=O)n(Cc2ccncc2)c1Sc1cc(Cl)cc(Cl)c1` [S-1153], in the data set on SIVagm SA212, the “Anti-HIV/SIV activity EC50, SIVagm” value was found to be 1.5 mg/L. Besides, in the data set on HIV-2 Rod, the “Anti-HIV/SIV activity EC50, HIV-2 Rod” value is greater than 4 mg/L. For the same compound, in the data set with HIV-1 NL432, the “Anti-HIV/SIV activity EC50, HIV-1 NL432” value amounted to 0.00077 mg/L. Besides, the EC50 in data set [1] was greater than 5 mg/L. Besides, the “Anti-HIV/SIV activity EC50, SIVmac” value in the data set with SIVmac MA239 was greater than 4 mg/L.
`Cc1cn([C@H]2C[C@H](N=[N+]=[N-])[C@@H](CO)O2)c(=O)[nH]c1=O` [AZT]: the “Anti-HIV/SIV activity EC50, SIVagm” value in the data set with SIVagm SA212 worked out at 0.00036 mg/L. For the same compound, in the data set with HIV-2 Rod, the “Anti-HIV/SIV activity EC50, HIV-2 Rod” value came out at 0.00028 mg/L. Besides, the “Anti-HIV/SIV activity EC50, HIV-1 NL432” value in the data set with HIV-1 NL432 was 0.00051 mg/L. The same compound came in with a 50% effective concentration (EC50) in data set [1] of 0.048 mg/L (≈ 0.18 µM). Also, in the data set with SIVmac MA239, the “Anti-HIV/SIV activity EC50, SIVmac” value turned out to be 0.00035 mg/L.
On to `Nc1ccn([C@@H]2CS[C@H](CO)O2)c(=O)n1` [3TC], for which, in the data set on SIVagm SA212, the “Anti-HIV/SIV activity EC50, SIVagm” value was 0.022 mg/L. Moreover, the “Anti-HIV/SIV activity EC50, HIV-2 Rod” value in the data set on HIV-2 Rod was found to be 0.022 mg/L. Moreover, in the data set with HIV-1 NL432, the “Anti-HIV/SIV activity EC50, HIV-1 NL432” value amounted to 0.0084 mg/L. For the same compound, the “Anti-HIV/SIV activity EC50, SIVmac” value in the data set on SIVmac MA239 is 0.0091 mg/L.
Turning to `Cc1ccnc2c1NC(=O)c1cccnc1N2C1CC1` [nevirapine], the concentration giving a half-maximal response (EC50) with SIVagm SA212 (setting [2]) is greater than 20 mg/L; in the data set with HIV-2 Rod (Human immunodeficiency virus 2, 120 h), greater than 20 mg/L; in the data set with HIV-1 NL432 (Human immunodeficiency virus 1, 120 h) it was 0.013 mg/L (≈ 0.0488 µM); with SIVmac MA239 (setting [2]) it was greater than 20 mg/L.
Usually melting point stands for the temperature of the solid-liquid transition. What is called IC50 is the concentration that inhibits the measured activity by half. Lower therefore signals inhibition by little substance. On to `CC(C)c1nc(C(O)=CC(=O)c2ccc(Cc3ccc(F)cc3)o2)n[nH]1` [I-99, 1-[5-(4-Fluorobenzyl)furan-2-yl]-3-hydroxy-3-(5-isopropyl-1H-1,2,4-triazol-3-yl)-propenone], for which the melting point lay in the range of 146 to 147 °C. This compound showed an IC50 against HIV-1 integrase of 1.86 µM.
Take `Cc1nc(C(O)=CC(=O)c2ccc(Cc3ccc(F)cc3)o2)cs1` [I-96, 1-[5-(4-Fluorobenzyl)furan-2-yl]-3-hydroxy-3-(2-methylthiazol-4-yl)-propenone]: the melting point lay in the range of 96 to 98 °C. Inhibition on HIV-1 integrase was half-maximal at 2.45 µM (IC50).
In the same order, the values of `Cc1nc(C(O)=CC(=O)c2ccc(Cc3ccc(F)cc3)o2)n[nH]1` [I-60, 1-[5-(4-Fluorobenzyl)furan-2-yl]-3-hydroxy-3-(5-methyl-1H-1,2,4-triazol-3-yl)-propenone] are 179 to 182 °C and 2.11 µM.
For `COC(=O)C(O)=CC(=O)c1ccc(Cc2ccc(F)cc2)o1` [I-53, 4-[5-(4-Fluorobenzyl)furan-2-yl]-2-hydroxy-4-oxo-2-butenoic acid methyl ester] the same measures were 102 to 104 °C and 7.89 µM.
The compound `O=C(/C=C(\O)c1nc[nH]n1)c1cc(C(=O)O)n(Cc2ccccc2)c1` [I-2, 1-[(1-Benzyl-5-carboxy)pyrrol-3-yl]-3-hydroxy-3-(1H-1,2,4-triazol-3-yl)-propenone] returned a melting point of 264 to 265 °C. This compound also gave an IC50 against HIV-1 integrase of 2.96 µM.
With `CCc1nc(C(O)=CC(=O)c2ccc(Cc3ccc(F)cc3)o2)n[nH]1` [I-98, 3-(5-Ethyl-1H-1,2,4-triazol-3-yl)-1-[5-(4-fluorobenzyl)furan-2-yl]-3-hydroxy-propenone], the melting point was in the range of 204 to 205 °C. This compound had an IC50 at HIV-1 integrase of 1.35 µM.
